Source: publication PMC2809336, “Antidepressant Interactions with the NMDA NR1-1b Subunit” (Journal of Biophysics, 2008)
“Also recorded” adds a separate entry of the source.

What was measured:
Assay type in all cases: binding
[1] = molecular target: T1, NMDA NR1-1b S1S2 domain (Rattus norvegicus, UniProt P35439); assay: Intrinsic tryptophan fluorescence quenching and λ max of emission; settings: for Binding to NR1-1b S1S2 by intrinsic tryptophan fluorescence: desipramine, trimipramine, imipramine 137 μM, maprotiline 3.18 mM, nortriptyline 2.08 mM, paroxetine 3.75 mM, sertraline 1.88 mM, fluvoxamine 2.81 mM; for λ max of the NR1-1b drug bound complex: excitation 290 nm, 25°C, apo 326.24 nm, drug at final quenching concentration; for Binding to NR1-1b S1S2 in intrinsic and extrinsic fluorescence assays: concentrations as high as 5.21 mM
T1 construct: (His)8-TSG-LVPRG(thrombin cut site)-S1(394-544)-GT-S2(663-800); (His)8-TSG-LVPRG (His8 tag with thrombin cut site) (N); made in house; host or cells: E. coli Origami B(DE3)
T1 sequence (P35439 394-544): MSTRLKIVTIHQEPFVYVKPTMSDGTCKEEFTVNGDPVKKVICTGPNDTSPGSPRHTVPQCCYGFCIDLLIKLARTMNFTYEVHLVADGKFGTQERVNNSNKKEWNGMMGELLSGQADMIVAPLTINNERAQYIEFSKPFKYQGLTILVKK
T1 sequence (P35439 663-800): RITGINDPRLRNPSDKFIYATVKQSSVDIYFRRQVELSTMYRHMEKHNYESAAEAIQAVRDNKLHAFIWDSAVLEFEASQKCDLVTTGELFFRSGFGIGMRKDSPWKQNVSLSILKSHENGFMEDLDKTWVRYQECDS
Protocol: (§1) Intrinsic fluorescence studies were performed in a Cary Eclipse fluorometer at 25°C. All emission scans were acquired from 300 to 400 nm upon excitation at 290 nm, with 10 nm excitation and emission slit widths in a 10 mm-path-length cell. Excitation was performed at 290 nm to minimize interference from both tyrosine residues in the NMDA NR1-1b S1S2 domain as well as the aromatic antidepressants being studied. Before data acquisition, samples were incubated for thirty seconds in the sample holder at 25°C. […] Thus, data was reported without a buffer subtraction.
(§2) All antidepressants were solubilized in 100% methanol to the highest attainable concentrations. To account for any effects methanol had on fluorescence intensity, protein spectra with methanol were collected, allowing direct comparison between samples with and without antidepressant. Each data set consisted of at least three independent emission spectra of identically prepared samples. The data is reported with error determined at the 95% confidence level.
The fluorescence intensity of the NR1-1b S1S2 domain was determined in the presence and absence of eachantidepressant with the appropriate blank subtraction. […] For all samples, the final concentration of methanol was kept at 1.8%.

[2] = molecular target: T1, NMDA NR1-1b S1S2 domain; assay: Stern-Volmer analysis, acrylamide quenching of tryptophan fluorescence; settings: acrylamide 16.3 to 113.9 mM, 5.29 μM NR1-1b S1S2 premixed with antidepressant; apo 1.61
Description: Plots of (F 0/F) −1 versus acrylamide concentration were constructed.

[3] = molecular target: T1, NMDA NR1-1b S1S2 domain; assay: Extrinsic ANS fluorescence; settings: ANS 1 : 1 with 5.29 μM NR1-1b S1S2, excitation 380 nm; drug concentrations as in Figure 4
Protocol: Extrinsic fluorescence studies were performed in a Cary Ec-lipse fluorometer at 25°C. All emission scans were acquired from 400 to 600 nm after excitation at 380 nm with 20 nm slit widths for emission and excitation in a 10 mm-path-length cell. Before data acquisition, samples were incubated for thirty seconds in the sample holder at 25°C. Blanks were collected both for the antidepressants and the NR1-1b S1S2 domain. Three emission spectra of identicallyprepared samples were averaged for each plot. 8-Anilino-1-naphthalenesulfonic acid (ANS, TCI America), in a 1 : 1 molar ratio, was added to 5.29 μM of the NR1-1b S1S2 domain premixed with antidepressant (at final concentrations as above for intrinsic quenching studies in addition to the SSRIs fluoxetine (8.62 μM) and fluvoxamine (2.81 mM) and the SNRI venlafaxine (29.07 μM)). As with all intrinsic assays, total methanol concentration was kept at 1.8%. Plots of intensity versus wavelength were constructed from averaged emission spectra.

[4] = molecular target: T1, NMDA NR1-1b S1S2 domain; assay: Kd determination by intrinsic tryptophan fluorescence (double reciprocal, Benesi-Hildebrand plot); settings: 5.29 μM NR1-1b S1S2, buffer 3 pH 6.5, 25°C, error at 95% confidence level
Protocol: as §1
as §2, with “Protein samples were at a final concentration of 5.29 μM in buffer 3 (10 mM MES, pH 6.5, 25 mM NaCl, 1 mM glycine). All” for “All”
A double reciprocal plot was used to determine Kd, which derives from the Benesi-Hildebrand relationship, provided there is a 1 : 1 binding stoichiometry. […] When 1/ΔF is plotted against 1/[L], a linear relationship exists. The intercept on the x-axis is − K d.. […]

Question: `CNCCCN1c2ccccc2CCc2ccccc21` [desipramine] was tested. Which “Binding to NR1-1b S1S2 by intrinsic tryptophan fluorescence” value [1] did it give?
Answer: binding

Question: And the “λ max of the NR1-1b drug bound complex” value [1]?
Answer: 326.77 nm

Question: And the K sv [2]?
Answer: 2.67 M⁻¹

Question: How did the “Binding to NR1-1b S1S2 by intrinsic tryptophan fluorescence” value [1] turn out when `CNCCC(Oc1ccc(C(F)(F)F)cc1)c1ccccc1` (centres unmarked) [fluoxetine] was run?
Answer: neither of which showed binding

Question: What about the “ANS emission spectrum of the NR1-1b S1S2 complex versus ANS bound to apo S1S2 (binding)” value [3] of the same molecule?
Answer: confirmed the binding

Question: `CN(C)CCCC1(c2ccc(F)cc2)OCc2cc(C#N)ccc21` (centres unmarked) [citalopram] was tested. Which “Binding to NR1-1b S1S2 in intrinsic and extrinsic fluorescence assays” value [1] did it give?
Answer: no binding

Question: What about the “Binding to NR1-1b S1S2 in intrinsic and extrinsic fluorescence assays” value ([1]; listed as Citalopram) of the same molecule?
Answer: no evidence of binding

Question: And the “Binding to NR1-1b S1S2 by intrinsic tryptophan fluorescence” value [1]?
Answer: did not

Question: For `Fc1ccc([C@@H]2CCNC[C@H]2COc2ccc3c(c2)OCO3)cc1` [paroxetine], which “Binding to NR1-1b S1S2 by intrinsic tryptophan fluorescence” value [1] is on record?
Answer: binding

Question: And the “λ max of the NR1-1b drug bound complex” value [1]?
Answer: 328.3 nm

Question: And the K sv [2]?
Answer: 3.06 M⁻¹

Question: And the “ANS emission spectrum of the NR1-1b S1S2 complex versus ANS bound to apo S1S2 (binding)” value [3]?
Answer: significantly different

Question: Which results are given for `COc1ccc(C(CN(C)C)C2(O)CCCCC2)cc1` (centres unmarked) [venlafaxine]?
Answer: Binding to NR1-1b S1S2 by intrinsic tryptophan fluorescence [1]: did not; also recorded: neither of which showed binding; ANS emission spectrum of the NR1-1b S1S2 complex versus ANS bound to apo S1S2 (binding) [3]: confirmed the binding

Question: `CNCCCC12CCC(c3ccccc31)c1ccccc12` [maprotiline] was tested. Which “Binding to NR1-1b S1S2 by intrinsic tryptophan fluorescence” value [1] did it give?
Answer: binding

Question: And the “λ max of the NR1-1b drug bound complex” value [1]?
Answer: 322.04 ± 1.83 nm

Question: What about the “λ max of the NR1-1b drug bound complex” value ([1]; listed as Maprotiline) of the same molecule?
Answer: 322.04 nm

Question: What about the “Change of tryptophan fluorescence emission upon binding” value ([1]; intensity versus apo NR1-1b S1S2) of the same molecule?
Answer: increases, rather than quenches

Question: What about the K sv [2] of the same molecule?
Answer: 5.92 M⁻¹

Question: What about the “ANS emission spectrum of the NR1-1b S1S2 complex versus ANS bound to apo S1S2 (binding)” value [3] of the same molecule?
Answer: significantly different

Question: Which results are given for `COCCCC/C(=N\OCCN)c1ccc(C(F)(F)F)cc1` [fluvoxamine]?
Answer: Binding to NR1-1b S1S2 by intrinsic tryptophan fluorescence [1]: binding; λ max of the NR1-1b drug bound complex [1]: 328.57 nm; K sv [2]: 3.77 M⁻¹; ANS emission spectrum of the NR1-1b S1S2 complex versus ANS bound to apo S1S2 (binding) [3]: significantly different

Question: How did the Kd [4] turn out when `CC(CN(C)C)CN1c2ccccc2CCc2ccccc21` (centres unmarked) [trimipramine] was run?
Answer: 1090 ± 240 µM

Question: What about the “Binding to NR1-1b S1S2 by intrinsic tryptophan fluorescence” value [1] of the same molecule?
Answer: binding

Question: What about the “λ max of the NR1-1b drug bound complex” value [1] of the same molecule?
Answer: 327.27 nm

Question: What about the K sv [2] of the same molecule?
Answer: 3.02 M⁻¹

Question: What about the “ANS emission spectrum of the NR1-1b S1S2 complex versus ANS bound to apo S1S2 (binding)” value [3] of the same molecule?
Answer: significantly different
